Experimental data reported in US20260224538A1 (Purdue Research Foundation, priority 2023, published 2026).

Assays:
Type in all cases: biochemical
[1] = target: T1, transthyretin fragment peptide (TTR81-127) (Homo sapiens, UniProt P02766); test: ThT fluorescence assay of TTR81-127 fibril formation; conditions: for remaining activity at 100 µM: compounds at 100 μM, TTR81-127 10 μM, control 0.25% DMSO, read-out: ThT TTR81-127 (%), maximum thioflavin T (ThT) intensity in percentage
T1 construct: TTR fragment 81-127 was obtained from AnaSpec; purchased AnaSpec; host or cells: synthetic peptide
Protocol: (§1) Thioflavin-T (ThT) fluorescence assays. Thioflavin-T (ThT) fluorescence assays were used to monitor fibril formation of recombinant Ap (fragments 1-40 and 1-42), recombinant α-syn, recombinant tau isoform 2N4R, synthetic IAPP, and synthetic TTR peptides treated with BTA and its derivatives. The IAPP ThT assay was performed in 10 mM PBS (pH 7.4) at a final concentration of 10 μM for both IAPP and ThT as published previously. Aβ fragments 1-40 and 1-42 were tested at 7 μM in 10 mM of PBS using ThT at a final concentration of 20 μM. Kinetics of α-syn fibrillization were performed as published previously.^36-37 TTR fragment kinetics of fibril formation were assessed at 10 μM in 100 mM sodium acetate buffer supplemented with 100 mM KCl and 1 mM ethylenediaminetetraacetic acid (EDTA) (pH 4) with 20 μM ThT. The fluorescence emission experiments were performed with the excitation and emission wavelengths set at 440 and 485 nm, respectively, with a Synergy HT multi-mode microplate reader (BioTek, Winooski, VT). Samples were measured in three replicates, and the experiments were repeated three times using at least two different stock solutions. For each time point, arbitrary units of fluorescence were calculated from the mean values normalized against the maximum value in each completed assay. The lag time for each condition was calculated as previously described. All results contained in histograms were presented as mean±SEM. Data were analyzed by the one-way analysis of variance with Dunnett's multiple comparisons between controls and compounds. Differences were considered statistically significant at p<0.05.

[2] = target: T2, islet amyloid polypeptide (IAPP) (Homo sapiens, UniProt P10997); test: ThT fluorescence assay of IAPP fibril formation; conditions: screen on prone-to-aggregate proteins (FIG. 2A, FIG. 4A); IAPP 10 μM
T2 construct: Human islet amyloid polypeptide (IAPP) was procured from AnaSpec; purchased AnaSpec; host or cells: synthetic peptide
T2 sequence (P10997 34-70 limits assumed): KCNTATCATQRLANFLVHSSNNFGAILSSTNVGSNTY
Protocol: as §1, with “All results contained in histograms were presented as mean±SEM. Data were analyzed by the one-way analysis of variance with Dunnett's multiple comparisons between controls and compounds. Differences were considered statistically significant at p<0.05.” left out

TTR101-125 = target: T3, TTR101-125 (Homo sapiens, UniProt P02766); test: ThT fluorescence assay of TTR101-125 fibril formation; conditions: screen on prone-to-aggregate proteins (FIG. 4A)
T3 construct: TTR fragments 1-25, 26-50, 51-75, 76-100, 81-105, 101-125, and 101-125 were obtained from GenScript; purchased GenScript; host or cells: synthetic peptide
Protocol: as §1

α-syn [3] = target: T4, α-syn (Homo sapiens, UniProt P37840); test: Photo-induced cross-linking of unmodified proteins (PICUP), α-syn oligomerization; conditions: compound 50 μM, molar ratio 1:5 (protein:compound)
T4 construct: purchased rPeptide
Protocol: (§2) Photo-induced Cross-linking of Unmodified Proteins (PICUP) Assay. To induce oligomerization by cross-linking, α-syn (from Rpeptide, LLC) and tau isoform 2N4R were diluted in 10 mM phosphate buffer (pH 7.4) to reach a final concentration of 10 μM. Different compounds were added to the protein solution at a final concentration of 50 μM, resulting in a molar ratio of 1:5. To confirm the gradual effect of the compounds on the inhibition of α-syn oligomerization, the compounds were tested at final concentrations of 3.125, 6.25, 12.5, 25, and 50 μM. The controls consisted of samples without light exposition, without Ru(bpy) or ammonium persulfate, and without compound (i.e., 0.125% DMSO). The cross-linking reaction was initiated by the addition of 2 μL of Ru(bpy) (300 μM final concentration) and 2 μL ammonium persulfate (6 mM final concentration). Samples were irradiated immediately. Light exposure was of a one-second duration for α-syn and a three-second duration for tau isoform 2N4R, with a 53 W (120 V) incandescent lamp installed in a homemade dark-box. Each tube contained a final volume of 20 μL. After irradiation, 8.3 μL of Laemmli loading buffer containing 15% β-mercaptoethanol were immediately added to the solution, followed by incubation at 95° C. for 10 minutes. The cross-linked samples were separated on a 16% SDS-PAGE gel and visualized by Coomassie blue staining.

Aβ1-40 = target: T5, Aβ1-40 (Homo sapiens, UniProt P05067); test: ThT fluorescence assay of Aβ1-40 fibril formation; conditions: screen on prone-to-aggregate proteins (FIG. 4A); Aβ 7 μM
T5 construct: α-syn, Aβ1-40, Aβ1-42 were procured from rPeptide; purchased rPeptide
T5 sequence (P05067 672-711 limits assumed): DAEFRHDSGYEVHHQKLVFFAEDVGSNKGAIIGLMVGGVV
Protocol: as §1, with “All results contained in histograms were presented as mean±SEM. Data were analyzed by the one-way analysis of variance with Dunnett's multiple comparisons between controls and compounds. Differences were considered statistically significant at p<0.05.” left out

α-synuclein (α-syn) = target: T6, α-synuclein (α-syn) (Homo sapiens, UniProt P37840); test: Thioflavin-T (ThT) fluorescence assay of α-syn fibril formation; conditions: for remaining activity at 100 µM: compounds at 100 μM, α-syn 6.25 μM, control 0.25% DMSO, read-out: ThT a-Syn (%), maximum thioflavin T (ThT) intensity in percentage
T6 construct: purchased rPeptide
Protocol: as §1
(§3) Compounds with the highest anti-fibrillary activity were tested at 3.125, 6.25, 12.5, 25, 50, and 100 μM to obtain dose-response curves with prepared α-syn and 2N4R tau at 6.25 μM and 6 μM, respectively. Compounds were tested with α-syn using a previously published procedure. Concerning the tau (isoform 2N4R) kinetics of fibril formation, measurements of ThT fluorescence were performed with a solution of the protein diluted to a final concentration of 6 μM in PBS (pH 7.4) supplemented with 1.5 μM heparin, 20 μM ThT, 2.5 mM DTT, and 100 μM compound. Aliquots of the diluted protein solution (100 μL each) were pipetted into the wells of a 96-well plate, and a Teflon ball was added to each well. The plate was incubated at 37° C. with constant shaking at 1,000 rpm in a Tecan Spark plate reader. ThT fluorescence was measured every 15 minutes with excitation and emission wavelengths of 440 nm and 480 nm, and the data were plotted using GraphPad Prism.

tau isoform 2N4R [4] = target: T7, tau isoform 2N4R (Homo sapiens, UniProt P10636); test: PICUP, tau isoform 2N4R oligomerization; conditions: compound 50 μM
T7 construct: made in house; host or cells: E. coli BL21(DE3)
T7 sequence (P10636 1-441 isoform P10636-8): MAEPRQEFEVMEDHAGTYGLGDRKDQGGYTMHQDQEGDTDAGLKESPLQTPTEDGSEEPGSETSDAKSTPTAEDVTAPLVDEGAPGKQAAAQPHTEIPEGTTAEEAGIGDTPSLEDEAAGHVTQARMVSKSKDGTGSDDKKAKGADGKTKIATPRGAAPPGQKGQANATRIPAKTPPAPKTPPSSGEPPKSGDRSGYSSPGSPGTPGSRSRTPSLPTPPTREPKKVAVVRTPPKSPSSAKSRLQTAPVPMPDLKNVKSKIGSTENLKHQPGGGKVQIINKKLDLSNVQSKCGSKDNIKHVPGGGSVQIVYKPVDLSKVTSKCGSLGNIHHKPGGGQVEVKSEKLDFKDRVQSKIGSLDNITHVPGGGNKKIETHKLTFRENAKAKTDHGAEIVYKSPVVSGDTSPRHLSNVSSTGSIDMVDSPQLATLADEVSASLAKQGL
Protocol: (§4) The bacterial expression plasmid consisting of the vector pRK172 carrying a cDNA encoding the human Tau 2N4R isoform was obtained from Dr. David Eliezer (Weill Cornell Medicine, New York, NJ). For protein expression, E. coli BL21(DE3) cells were transformed with the plasmid and grown in LB media supplemented with ampicillin (100 μg/mL). Protein over-expression was induced by the addition of 1 mM IPTG for 4 hours at 37° C., and cells were pelleted by centrifugation at 6,000 g for 15 minutes at 4° C. The cells were resuspended in lysis buffer (20 mM MES, 400 mM NaCl, 0.2 mM MgCl2, 1 mM EGTA, protease inhibitor cocktail (P8340, Sigma Aldrich), 0.25 mg/mL lysozyme, and 1 μg/mL DNase 1, pH 6.8) and lysed by a French press cell disruptor at 4° C., after which the lysate was boiled for 20 minutes. Denatured proteins were pelleted by centrifugation at 30,000 g for 30 minutes at 4° C., and the supernatant was dialyzed overnight against cation exchange buffer (20 mM MES, 50 mM NaCl, 1 mM MgCl2, 1 mM EGTA, 2 mM DTT, 0.1 mM PMSF, pH 6.8). The dialysate was loaded onto a HiPrep SP HP column, and proteins were eluted with a linear gradient ranging from 50 mM to 1 M NaCl. Fractions containing tau isoform 2N4R were pooled, and the resulting protein solution was dialyzed against PBS (pH 7.4) and stored at −80° C.
as §2

Aβ1-42 = target: T8, Aβ1-42 (Homo sapiens, UniProt P05067); test: ThT fluorescence assay of Aβ1-42 fibril formation; conditions: screen on prone-to-aggregate proteins (FIG. 2A, FIG. 4A); Aβ 7 μM
T8 construct: α-syn, Aβ1-40, Aβ1-42 were procured from rPeptide; purchased rPeptide
T8 sequence (P05067 672-713 limits assumed): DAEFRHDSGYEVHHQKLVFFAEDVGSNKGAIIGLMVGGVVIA
Protocol: as §1

α-syn [5] = target: T4, α-syn; test: Photo-induced cross-linking of unmodified proteins (PICUP), α-syn oligomerization; conditions: compound 200 μM
tau isoform 2N4R [6] = target: T7, tau isoform 2N4R; test: ThT kinetics of tau isoform 2N4R fibril formation; conditions: tau 6 μM, compound 100 μM
Protocol: as §4, §3

[7] = screen on prone-to-aggregate proteins (FIG. 2A, FIG. 4A)

SMILES | remaining activity at 100 µM [1] [%] | thioflavin T fluorescence intensity, TTR81-127 [1, 7] | thioflavin T fluorescence intensity, IAPP [2] | thioflavin T fluorescence intensity, TTR101-125 (TTR101-125) | α-syn oligomer formation (PICUP) (α-syn [3]) | thioflavin T fluorescence intensity, Aβ1-40 (Aβ1-40) | remaining activity at 100 µM (α-synuclein (α-syn)) [%] | thioflavin T fluorescence intensity, α-syn (α-synuclein (α-syn); [7]) | tau isoform 2N4R oligomer formation (PICUP) (tau isoform 2N4R [4]) | thioflavin T fluorescence intensity, Aβ1-42 (Aβ1-42) | α-syn oligomer formation (PICUP) at high concentration (α-syn [5]) | lag time of tau isoform 2N4R fibril formation (tau isoform 2N4R [6]) | production of tau isoform 2N4R fibrils (ThT kinetic aggregation curves) (tau isoform 2N4R [6])
Clc1nc(Cl)nc(Nc2ccc(-c3nc4ccccc4s3)cc2)n1 [Compound 5, N-[4-(1,3-benzothiazol-2-yl)phenyl]-4,6-dichloro-1,3,5-triazin-2-amine] | > 100 | greater than 100% | greater than 100% | greater than 100% | high molecular weight bands representing the oligomeric species | greater than 100% | > 100 | greater than 100% | high molecular weight bands representing the oligomeric species | greater than 100% | – | – | –
CCNC(=O)N(C(=O)NCC)c1nsc2ccc([N+](=O)[O-])cc12 [Compound 13, N-ethyl-1-[(ethylcarbamoyl)(5-nitro-1,2-benzothiazol-3-yl)amino]formamide] | 73.4 ± 1.9 | – | – | – | – | – | 16.4 ± 7.8 | – | – | – | reduced substantially the oligomer formation | delayed the lag time | reduced the production of tau isoform 2N4R fibrils
